Source: ChEMBL document CHEMBL4400521, “Plasma kallikrein cleaves and inactivates apelin-17: Palmitoyl- and PEG-extended apelin-17 analogs as metabolically stable blood pressure-lowering agents” (Eur J Med Chem, 2019)
Non-standard residues stand in square brackets, D forms with d. Residues, ends and D or L forms follow the SMILES beside them. *: point of attachment. Phe(4-Br) = N[C@@H](Cc1ccc(Br)cc1)C(=O)O; Fmoc = O=C(OCC1c2ccccc2-c2ccccc21)*; PEG6 = NCCOCCOCCOCCOCCOCCOCCC(=O)O; Palmitoyl = CCCCCCCCCCCCCCCC(=O)*; NMeL = CN[C@@H](CC(C)C)C(=O)O; Nle = CCCC[C@H](N)C(=O)O; Aib = CC(C)(N)C(=O)O

Tests used:
Neprilysin = Neprilysin (Homo sapiens, UniProt P08473); assay: Substrate activity at recombinant human NEP (Tyr52 to Trp750 residues) expressed in HEK293 cells assessed as enzyme-mediated degradation onset time at 1 mM by MALDI-TOF MS analysis; type: ADME, cell-based; conditions: hek293, 1000 µM
Mus musculus = assay: Blood pressure lowering activity in anesthetized mouse assessed as change in mean arterial blood pressure at 1.4 uM/kg, iv; type: functional
[1] = target: T1, Plasma kallikrein (KLKB1) (Homo sapiens, UniProt P03952); assay: Substrate activity at KLKB1 in human plasma assessed as compound half life by LC-MS analysis; type: ADME, cell-free
Neprilysin (NEP) = Neprilysin (NEP) (Homo sapiens, UniProt P08473); assay: Substrate activity at recombinant human NEP (Tyr52 to Trp750 residues) expressed in HEK293 cells assessed as compound half life by LC-MS analysis; type: ADME, cell-based
Apelin receptor [2] = target: T2, Apelin receptor (Homo sapiens, UniProt P35414); assay: Activation of recombinant human APJ expressed in rat Chem5 cells co-expressing Galpha15 by Calcium 6-QF dye based fluorescence assay; type: functional, cell-based
T2 sequence (P35414 whole entry): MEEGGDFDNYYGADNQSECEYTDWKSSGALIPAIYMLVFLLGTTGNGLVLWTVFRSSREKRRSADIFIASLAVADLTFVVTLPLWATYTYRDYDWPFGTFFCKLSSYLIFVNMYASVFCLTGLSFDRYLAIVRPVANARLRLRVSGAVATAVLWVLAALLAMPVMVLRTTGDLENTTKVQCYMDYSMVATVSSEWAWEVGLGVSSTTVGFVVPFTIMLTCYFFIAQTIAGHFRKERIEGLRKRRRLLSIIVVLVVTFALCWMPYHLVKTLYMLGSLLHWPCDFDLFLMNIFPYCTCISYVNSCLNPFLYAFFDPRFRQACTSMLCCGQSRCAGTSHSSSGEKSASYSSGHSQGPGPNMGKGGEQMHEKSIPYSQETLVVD

[3] = target: T1, Plasma kallikrein (KLKB1); assay: (§1) Substrate activity at recombinant human C-terminal His6-tagged KLKB1 (Pro19 to Ser262 residues) expressed in mammalian expression system assessed as compound half life by LC-MS analysis; type: ADME
Plasma kallikrein [4] = target: T3, Plasma kallikrein (Homo sapiens, UniProt P03952); assay: Substrate activity at recombinant human C-terminal His6-tagged KLKB1 (Pro19 to Ser262 residues) expressed in mammalian expression system assessed as enzyme-mediated degradation onset time at 1 mM by MALDI-TOF MS analysis; type: ADME; conditions: 1000 µM
[5] = target: T1, Plasma kallikrein (KLKB1); assay: Substrate activity at recombinant human C-terminal His6-tagged KLKB1 (Pro19 to Ser262 residues) expressed in mammalian expression system assessed as Km measured after 30 to 60 mins by LC-MS analysis; type: ADME
Plasma kallikrein [6] = target: T3, Plasma kallikrein; assay: Substrate activity at human KLKB1 assessed as ratio of Kcat to Km by spectrofluorimetric method; type: ADME
Plasma kallikrein [7] = target: T3, Plasma kallikrein; assay: Substrate activity at recombinant human C-terminal His6-tagged KLKB1 (Pro19 to Ser262 residues) expressed in mammalian expression system assessed as Kcat measured after 30 to 60 mins by LC-MS analysis; type: ADME
Plasma kallikrein [8] = target: T3, Plasma kallikrein; assay: as §1; type: ADME
Apelin receptor [9] = target: T4, Apelin receptor (Rattus norvegicus, UniProt Q9JHG3); assay: Displacement of [125I]-(Glp1,Nle11,[…])apelin-13 from recombinant rat EGFP-fused apelin receptor expressed in CHO cell membrane measured after 3 hrs; type: cell membranes
T4 sequence (Q9JHG3 whole entry): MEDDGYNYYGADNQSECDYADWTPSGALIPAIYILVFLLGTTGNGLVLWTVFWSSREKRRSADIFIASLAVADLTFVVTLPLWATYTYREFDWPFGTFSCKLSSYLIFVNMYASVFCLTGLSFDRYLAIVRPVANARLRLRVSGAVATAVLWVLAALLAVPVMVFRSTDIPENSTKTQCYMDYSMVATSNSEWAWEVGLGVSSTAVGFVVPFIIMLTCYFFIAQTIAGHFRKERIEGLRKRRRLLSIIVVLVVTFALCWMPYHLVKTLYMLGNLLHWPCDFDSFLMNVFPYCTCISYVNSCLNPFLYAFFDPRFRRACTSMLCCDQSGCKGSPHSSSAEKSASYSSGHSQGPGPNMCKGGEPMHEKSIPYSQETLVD

Plasma kallikrein [10] = target: T3, Plasma kallikrein; assay: Substrate activity at recombinant human C-terminal His6-tagged KLKB1 (Pro19 to Ser262 residues) expressed in mammalian expression system assessed as Vmax measured after 30 to 60 mins by LC-MS analysis; type: ADME

T1 sequence (P03952 20-390 limits assumed): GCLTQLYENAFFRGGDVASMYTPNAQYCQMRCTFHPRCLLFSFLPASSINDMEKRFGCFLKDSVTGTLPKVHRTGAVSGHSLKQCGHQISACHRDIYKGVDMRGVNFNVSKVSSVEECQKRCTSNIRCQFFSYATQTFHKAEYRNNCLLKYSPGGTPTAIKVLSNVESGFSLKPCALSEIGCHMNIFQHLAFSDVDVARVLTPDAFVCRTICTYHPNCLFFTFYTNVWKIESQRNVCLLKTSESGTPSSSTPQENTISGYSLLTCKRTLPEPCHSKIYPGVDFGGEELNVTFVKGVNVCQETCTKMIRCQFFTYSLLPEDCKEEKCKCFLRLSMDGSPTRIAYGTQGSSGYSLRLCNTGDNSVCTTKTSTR
T1 sequence (P03952 391-638 limits assumed): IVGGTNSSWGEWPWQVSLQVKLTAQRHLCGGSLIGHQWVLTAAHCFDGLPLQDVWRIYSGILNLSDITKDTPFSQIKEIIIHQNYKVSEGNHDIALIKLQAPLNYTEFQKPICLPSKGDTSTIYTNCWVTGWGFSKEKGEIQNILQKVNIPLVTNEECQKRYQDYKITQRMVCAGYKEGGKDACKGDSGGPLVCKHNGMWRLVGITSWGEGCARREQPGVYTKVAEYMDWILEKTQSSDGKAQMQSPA
T3 sequence (P03952 20-390 limits assumed): as the sequence (P03952 20-390 limits assumed) above
T3 sequence (P03952 391-638 limits assumed): as the sequence (P03952 391-638 limits assumed) above
Chain of Neprilysin (P08473 whole entry): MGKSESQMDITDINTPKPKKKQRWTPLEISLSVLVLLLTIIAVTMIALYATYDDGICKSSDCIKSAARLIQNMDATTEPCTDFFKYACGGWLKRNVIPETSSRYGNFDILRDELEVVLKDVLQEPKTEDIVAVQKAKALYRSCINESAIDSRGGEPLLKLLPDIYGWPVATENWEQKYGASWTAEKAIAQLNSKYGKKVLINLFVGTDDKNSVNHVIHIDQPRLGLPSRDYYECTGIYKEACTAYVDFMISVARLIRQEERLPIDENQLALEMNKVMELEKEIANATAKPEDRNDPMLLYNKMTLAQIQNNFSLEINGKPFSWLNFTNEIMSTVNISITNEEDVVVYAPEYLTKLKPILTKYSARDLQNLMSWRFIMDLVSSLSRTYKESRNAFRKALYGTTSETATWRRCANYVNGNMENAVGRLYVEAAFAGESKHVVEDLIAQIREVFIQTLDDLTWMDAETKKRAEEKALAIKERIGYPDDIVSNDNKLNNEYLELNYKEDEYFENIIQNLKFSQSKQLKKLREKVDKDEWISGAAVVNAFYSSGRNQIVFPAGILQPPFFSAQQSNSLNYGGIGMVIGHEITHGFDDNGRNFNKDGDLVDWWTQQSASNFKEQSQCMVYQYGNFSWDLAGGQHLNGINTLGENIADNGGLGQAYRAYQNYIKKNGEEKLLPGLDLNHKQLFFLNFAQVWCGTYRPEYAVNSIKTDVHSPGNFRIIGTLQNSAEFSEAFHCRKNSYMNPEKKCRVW
Chain of Neprilysin (NEP) (P08473 whole entry): as above

Molecule: CCCC[C@H](NC(=O)[C@@H]1CCCN1C(=O)CNC(=O)[C@H](CCCCN)NC(=O)[C@H](Cc1cnc[nH]1)NC(=O)[C@H](CO)NC(=O)[C@H](CC(C)C)NC(=O)[C@H](CCCNC(=N)N)NC(=O)[C@@H]1CCCN1C(=O)[C@H](CCCNC(=N)N)NC(=O)[C@H](CCC(N)=O)NC(=O)[C@@H](N)CCCNC(=N)N)C(=O)NC(C)(C)C(=O)N[C@@H](Cc1ccc(Br)cc1)C(=O)O (H-RQRPRLSHKGP[Nle][Aib][Phe(4-Br)]-OH)
- Time (Neprilysin): > 36 h
- Activity (Mus musculus): 3 mmHg

Molecule: CCCC[C@H](NC(=O)[C@@H]1CCCN1C(=O)CNC(=O)[C@H](CCCCN)NC(=O)[C@H](Cc1c[nH]cn1)NC(=O)[C@H](CO)NC(=O)[C@H](CC(C)C)N(C)C(=O)[C@H](CCCNC(=N)N)NC(=O)[C@@H]1CCCN1C(=O)[C@H](CCCNC(=N)N)NC(=O)[C@H](CCC(N)=O)NC(=O)[C@H](CCCNC(=N)N)NC(=O)[C@H](CCCNC(=N)N)NC(=O)[C@H](Cc1ccccc1)NC(=O)[C@@H](N)CCCCN)C(=O)NC(C)(C)C(=O)N[C@@H](Cc1ccc(Br)cc1)C(=O)O (H-KFRRQRPR[NMeL]SHKGP[Nle][Aib][Phe(4-Br)]-OH)
- Activity (Mus musculus): -36 mmHg
- half-life [1]: 1.2 h
- half-life (Neprilysin (NEP)): 0.9 h
- EC50 (Apelin receptor [2]): 4.9 nM
- half-life [3]: > 30 h

Molecule: CCCC[C@H](NC(=O)[C@@H]1CCCN1C(=O)CNC(=O)[C@H](CCCCN)NC(=O)[C@H](Cc1cnc[nH]1)NC(=O)[C@H](CO)NC(=O)[C@H](CC(C)C)NC(=O)[C@H](CCCNC(=N)N)NC(=O)[C@@H]1CCCN1C(=O)[C@H](CCCNC(=N)N)NC(=O)[C@H](CCC(N)=O)NC(=O)[C@H](CCCNC(=N)N)NC(=O)[C@H](CCCNC(=N)N)NC(=O)[C@H](Cc1ccccc1)NC(=O)[C@H](CCCCN)NC(=O)CCOCCOCCOCCOCCOCCOCCNC(=O)OCC1c2ccccc2-c2ccccc21)C(=O)NC(C)(C)C(=O)N[C@@H](Cc1ccc(Br)cc1)C(=O)O ({Fmoc-PEG6}-KFRRQRPRLSHKGP[Nle][Aib][Phe(4-Br)]-OH)
- Time (Neprilysin): 12 h
- Activity (Mus musculus): -48 mmHg
- Time (Plasma kallikrein [4]): 1 h
- half-life [1]: 18 h
- EC50 (Apelin receptor [2]): 6.3 nM
- half-life [3]: > 30 h

Molecule: H-SLSSMTRVVGG-OH
- Km [5]: 2.4 µM
- Kcat/Km (Plasma kallikrein [6]): 0.4 ×10⁴ /Ms
- Kcat (Plasma kallikrein [7]): 0.001 s⁻¹

Molecule: CCCC[C@H](NC(=O)[C@@H]1CCCN1C(=O)CNC(=O)[C@H](CCCCN)NC(=O)[C@H](Cc1c[nH]cn1)NC(=O)[C@H](CO)NC(=O)[C@H](CC(C)C)NC(=O)[C@H](CCCNC(=N)N)NC(=O)[C@@H]1CCCN1C(=O)[C@H](CCCNC(=N)N)NC(=O)[C@H](CCC(N)=O)NC(=O)[C@H](CCCNC(=N)N)NC(=O)[C@H](CCCNC(=N)N)NC(=O)[C@H](Cc1ccccc1)NC(=O)[C@@H](N)CCCCN)C(=O)NC(C)(C)C(=O)N[C@@H](Cc1ccc(Br)cc1)C(=O)O (H-KFRRQRPRLSHKGP[Nle][Aib][Phe(4-Br)]-OH)
- Time (Neprilysin): < 1 h
- Activity (Mus musculus): -32 mmHg
- Time (Plasma kallikrein [4]): < 0.5 h
- half-life [1]: 0.3 h
- half-life (Neprilysin (NEP)): 0.7 h
- EC50 (Apelin receptor [2]): 4.1 nM
- t1/2 (Plasma kallikrein [8]): 1 h

Molecule: CCCCCCCCCCCCCCCC(=O)N[C@@H](CCCCN)C(=O)N[C@@H](Cc1ccccc1)C(=O)N[C@@H](CCCNC(=N)N)C(=O)N[C@@H](CCCNC(=N)N)C(=O)N[C@@H](CCC(N)=O)C(=O)N[C@@H](CCCNC(=N)N)C(=O)N1CCC[C@H]1C(=O)N[C@@H](CCCNC(=N)N)C(=O)N(C)[C@@H](CC(C)C)C(=O)N[C@@H](CO)C(=O)N[C@@H](Cc1cnc[nH]1)C(=O)N[C@@H](CCCCN)C(=O)NCC(=O)N1CCC[C@H]1C(=O)N[C@@H](CCCC)C(=O)NC(C)(C)C(=O)N[C@@H](Cc1ccc(Br)cc1)C(=O)O (Palmitoyl-KFRRQRPR[NMeL]SHKGP[Nle][Aib][Phe(4-Br)]-OH)
- Time (Neprilysin): > 36 h
- Activity (Mus musculus): -12 mmHg
- Time (Plasma kallikrein [4]): 2 h
- half-life [1]: 20.5 h
- half-life (Neprilysin (NEP)): 2.1 h
- half-life [3]: > 30 h

Molecule: CCCC[C@H](NC(=O)[C@@H]1CCCN1C(=O)CNC(=O)[C@H](CCCCN)NC(=O)[C@H](Cc1cnc[nH]1)NC(=O)[C@H](CO)NC(=O)[C@H](CC(C)C)N(C)C(=O)[C@H](CCCNC(=N)N)NC(=O)[C@@H]1CCCN1C(=O)[C@H](CCCNC(=N)N)NC(=O)[C@H](CCC(N)=O)NC(=O)[C@H](CCCNC(=N)N)NC(=O)[C@H](CCCNC(=N)N)NC(=O)[C@H](Cc1ccccc1)NC(=O)[C@H](CCCCN)NC(=O)CCOCCOCCOCCOCCOCCOCCNC(=O)OCC1c2ccccc2-c2ccccc21)C(=O)NC(C)(C)C(=O)N[C@@H](Cc1ccc(Br)cc1)C(=O)O ({Fmoc-PEG6}-KFRRQRPR[NMeL]SHKGP[Nle][Aib][Phe(4-Br)]-OH)
- Time (Neprilysin): > 36 h
- Activity (Mus musculus): -53 mmHg
- Time (Plasma kallikrein [4]): 2 h
- half-life [1]: 27 h
- EC50 (Apelin receptor [2]): 2.5 nM
- half-life [3]: > 30 h

Molecule: CSCC[C@H](NC(=O)[C@@H]1CCCN1C(=O)CNC(=O)[C@H](CCCCN)NC(=O)[C@H](Cc1cnc[nH]1)NC(=O)[C@H](CO)NC(=O)[C@H](CC(C)C)NC(=O)[C@H](CCCNC(=N)N)NC(=O)[C@@H]1CCCN1C(=O)[C@H](CCCNC(=N)N)NC(=O)[C@H](CCC(N)=O)NC(=O)[C@H](CCCNC(=N)N)NC(=O)[C@H](CCCNC(=N)N)NC(=O)[C@H](Cc1ccccc1)NC(=O)[C@@H](N)CCCCN)C(=O)N1CCC[C@H]1C(=O)N[C@@H](Cc1ccccc1)C(=O)O
- Time (Neprilysin): < 0.5 h
- Activity (Mus musculus): -20 mmHg
- Time (Plasma kallikrein [4]): < 0.5 h
- IC50 (Apelin receptor [9]): 0.025 nM
- Vmax (Plasma kallikrein [10]): 2.947 µmol/min
- half-life [1]: 0.02 h
- half-life (Neprilysin (NEP)): 0.4 h
- half-life [3]: 0.4 h

Molecule: CCCC[C@H](NC(=O)[C@@H]1CCCN1C(=O)CNC(=O)[C@H](CCCCN)NC(=O)[C@H](Cc1cnc[nH]1)NC(=O)[C@H](CO)NC(=O)[C@H](CC(C)C)N(C)C(=O)[C@H](CCCNC(=N)N)NC(=O)[C@@H]1CCCN1C(=O)[C@H](CCCNC(=N)N)NC(=O)[C@H](CCC(N)=O)NC(=O)[C@@H](N)CCCNC(=N)N)C(=O)NC(C)(C)C(=O)N[C@@H](Cc1ccc(Br)cc1)C(=O)O (H-RQRPR[NMeL]SHKGP[Nle][Aib][Phe(4-Br)]-OH)
- Activity (Mus musculus): -15 mmHg

Molecule: CCCCCCCCCCCCCCCC(=O)N[C@@H](CCCCN)C(=O)N[C@@H](Cc1ccccc1)C(=O)N[C@@H](CCCNC(=N)N)C(=O)N[C@@H](CCCNC(=N)N)C(=O)N[C@@H](CCC(N)=O)C(=O)N[C@@H](CCCNC(=N)N)C(=O)N1CCC[C@H]1C(=O)N[C@@H](CCCNC(=N)N)C(=O)N[C@@H](CC(C)C)C(=O)N[C@@H](CO)C(=O)N[C@@H](Cc1cnc[nH]1)C(=O)N[C@@H](CCCCN)C(=O)NCC(=O)N1CCC[C@H]1C(=O)N[C@@H](CCCC)C(=O)NC(C)(C)C(=O)N[C@@H](Cc1ccc(Br)cc1)C(=O)O (Palmitoyl-KFRRQRPRLSHKGP[Nle][Aib][Phe(4-Br)]-OH)
- Time (Neprilysin): 1 h
- Activity (Mus musculus): -41 mmHg
- Time (Plasma kallikrein [4]): 1 h
- half-life [1]: 4.5 h
- half-life (Neprilysin (NEP)): 1 h
- half-life [3]: 1.5 h
